The values below are quoted from earlier work in patent US7329673B2, “Acylated spiropiperidine derivatives as melanocortin-4 receptor agonists” (Merck & Co., Inc., priority 2003, dated 2008).

Series [1] deals with men with erectile dysfunction. The following applies: for duration of effect / onset of action: after an oral dose; for share of men/patients in whom effective (adequate response): oral.
For series [2] the following is noted: in vivo, po.
For series [3], the system named is males with psychogenic erectile dysfunction.

Turning to `Cc1ccc(N(CC2=NCCN2)c2cccc(O)c2)cc1` [phentolamine], in series [1], the duration of effect is 2 h, the onset of action was 5 to 30 min and the “share of men/patients in whom effective (adequate response)” value was 35-40%.
Regarding `CCCc1nn(C)c2c(=O)[nH]c(-c3cc(S(=O)(=O)N4CCN(C)CC4)ccc3OCC)nc12` [sildenafil], in series [1], the duration of effect entry is “about 4 hours”, the onset of action was 30 to 60 min and the “share of men/patients in whom effective (adequate response)” value is reported as “about 70%”.
For “Ac-Nle-c[Asp-His-DPhe-Arg-Trp-Lys]-NH2 [MT-II]”, the “absorption into the systemic circulation” value in series [2] is recorded as “not absorbed into the systemic circulation”. Also, in series [3] (in vivo), the duration of action entry is on record as “approximately 2.5 hours” and the “time to onset of erection” value was 10 to 20 min. In series [3] (injected intramuscularly or subcutaneously), the response rate was 75%.
